pIC50: −log10 of the molar value. Calls of active or inactive are those of the source. No rule for the calls is given here. Bounds are passed on as bounds.

The target in the test is Nuclear receptor ROR-alpha (Homo sapiens) (UniProt P35398). As to the kind of experiment: RORA reporter inhibition, dose response, counter-screen for SF-1 inhibitor project, cell-based (AID 599). Background: Counterscreens check selectivity or assay interference.
Nuclear receptor ROR-alpha (Homo sapiens), sequence (P35398 whole entry, looked up): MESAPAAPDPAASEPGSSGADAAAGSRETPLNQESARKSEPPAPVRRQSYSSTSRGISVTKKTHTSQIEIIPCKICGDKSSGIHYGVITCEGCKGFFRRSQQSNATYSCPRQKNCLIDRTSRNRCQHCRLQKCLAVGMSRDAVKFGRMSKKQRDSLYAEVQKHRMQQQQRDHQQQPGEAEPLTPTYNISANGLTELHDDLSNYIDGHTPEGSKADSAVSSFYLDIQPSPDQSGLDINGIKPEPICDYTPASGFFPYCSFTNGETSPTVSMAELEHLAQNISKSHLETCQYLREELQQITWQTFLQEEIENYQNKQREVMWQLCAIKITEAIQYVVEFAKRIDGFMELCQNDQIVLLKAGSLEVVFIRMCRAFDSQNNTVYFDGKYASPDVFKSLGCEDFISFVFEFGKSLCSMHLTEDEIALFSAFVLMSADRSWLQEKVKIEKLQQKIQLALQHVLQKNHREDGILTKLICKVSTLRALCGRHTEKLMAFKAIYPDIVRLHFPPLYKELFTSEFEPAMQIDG
Turning to `CN(C)c1ccc(N/C=C/C(=O)c2ccccc2)cc1`, the IC50 entry was “inactive”.
On to `CCOC(=O)C1=C(Cn2cnc3ccccc32)NC(=O)NC1c1cc(C)ccc1C` (centres undefined), for which the IC50 was > 11 µM (inactive).
For the compound `O=C(/C=C\Nc1cccc(F)c1)c1ccc2c(c1)OCO2`, the pIC50 was 5.26.
On the same count and under the same terms, then `COc1cc(/C=N/O)ccc1OCc1ccc(C(=O)O)cc1`, with 6.01; and `COc1cc(C2C(C#N)=C(C)NC3=C2C(=O)c2ccccc23)cc(OC)c1OC` (centres undefined), with 5.32.
With `CN(C)c1ccc2c(c1)OC(N)=C(C#N)C2c1cccc(F)c1` (centres undefined), the IC50 entry was “inactive”.
For `O=C(/C=C\Nc1ccccn1)c1ccc(Cl)cc1`, the pIC50 is 5.15.
Still for that read-out and setting: the result for `CCOc1ccccc1-n1c(SCC(=O)Nc2ccc(CC)cc2)nc2n[nH]c(C)c2c1=N` reads 5.18.
`O=C(/C=C\Nc1ccc2c(c1)OCO2)c1ccccn1`: the IC50 was > 11 µM (inactive).
Still for that read-out and setting: then `COc1cc(C2C(C#N)=C(N)Oc3cc(N(C)C)ccc32)cc2c1OCO2` (centres undefined), with > 3.67 µM (inactive).
Consider `O=S(=O)(c1ccc2c(c1)C(=NO)c1cc(S(=O)(=O)N3CCCCC3)ccc1-2)N1CCCCC1`, for which the pIC50 was 5.71.
`Cc1ccc(C(=O)/C=C/Nc2ccccn2)cc1`: the IC50 result is “inactive”.
Consider `COC(=O)C1=C(CN2CCCc3ccccc32)NC(=O)NC1c1ccc(F)cc1` (centres undefined), for which the pIC50 is 5.44.
For `COc1cc(C2C(C#N)=C(N)Oc3cc(N)ccc32)cc(OC)c1OC` (centres undefined), the IC50 result was “inactive”.
With `CC(=O)CC1OC(=O)C(Br)=C1NCc1ccccc1` (centres undefined), the pIC50 is 5.02.
With `COC(=O)c1ccc(N2C(=O)CC(N3CCC(n4c(=O)[nH]c5ccccc54)CC3)C2=O)cc1` (centres undefined), the IC50 was > 99 µM (inactive).
Turning to `N#CC1=C(N)C(C#N)(C#N)[C@H](c2ccncc2)[C@H]2CN(C(=O)OCc3ccccc3)CC=C12`, the IC50 result is “inactive”.
Still for that read-out and setting: the result for `CSC1=C(C#N)C(c2ccc(Cl)cc2)C2=C(CC(C)(C)CC2=O)N1` (centres undefined) reads “inactive”; that for `CCN(CC)c1ccc2c(c1)OC(N)=C(C#N)C2c1cccnc1` (centres undefined), “inactive”.

What is called IC50 is the concentration that inhibits the measured activity by half. Broadly, the pIC50 is −log10 of the IC50, conventionally taken in molar units.

The record behind these values is PubChem BioAssay AID599 (The Scripps Research Institute Molecular Screening Center, 2007).
